What was measured:
[1] = Loss of Compound 1 to dispensing kit components (syringe, silicone tube, hard tube, filter), evaluated by HPLC; type: physicochemical; details: 7% v/v ethanol
Procedure: Solutions were prepared containing 7% v/v ethanol in 0.01 M sodium phosphate buffer at pH 7.4, 75 μg of Compound 1 and either (i) 12% v/v propylene glycol (PG) or (ii) 10% v/v polyethylene glycol 400 (PEG 400). Percentage loss of Compound 1 to various components of a dispensing kit was evaluated by High Performance Liquid Chromatography (HPLC) in the following experiments: […]

[2] = Compound 1 adsorption (loss) to various silicone tubings with polysorbate 80; type: physicochemical
Procedure: Solutions were prepared containing 7% v/v ethanol in 10 mM sodium phosphate buffer at pH 7.4, 75 μg of Compound 1 and selected v/v % amounts of polysorbate 80. Various silicone tubing types were tested as follows: [table] The percentage loss of Compound 1 onto the tubing was calculated in each experiment. Fluorine was assayed before and after the passage through tubing, and the results were as follows: […]

- % loss ([1]; 10% v/v PEG 400, filter, 11 sec, 9.5 ml, 0.01 M phosphate pH 7.4): 51%
- % loss ([1]; 10% v/v PEG 400, hard tube, 5 min 4 sec, ~2-2.5 ml, 0.01 M phosphate pH 7.4): 4%
- % loss ([1]; 10% v/v PEG 400, silicone tube, 2 min 2 sec, ~1-1.5 ml, 0.01 M phosphate pH 7.4): 8%
- % loss ([1]; 10% v/v PEG 400, syringe, 1 min 1 sec, 9.5 ml, 0.01 M phosphate pH 7.4): 1%
- % loss ([1]; 12% v/v PG, filter, 10 sec, 9.5 ml, 0.01 M phosphate pH 7.4): 87%
- % loss ([1]; 12% v/v PG, hard tube, 5 min 2 sec, ~2-2.5 ml, 0.01 M phosphate pH 7.4): 3%
- % loss ([1]; 12% v/v PG, silicone tube, 2 min 23 sec, ~1-1.5 ml, 0.01 M phosphate pH 7.4): 30%
- % loss ([1]; 12% v/v PG, syringe, 1 min 4 sec, 9.5 ml, 0.01 M phosphate pH 7.4, 75 μg Compound 1): 0%
- % Loss Compound 1 ([2]; Experiment 1: 0.8 × 4.0 Pt-cured silicone tubing, polysorbate 80 0 v/v %, 2 min 0 sec, 350 μl): 63%
- % Loss Compound 1 ([2]; Experiment 2: 1.6 × 4.8 Pt-cured silicone tubing, polysorbate 80 0 v/v %, 2 min 7 sec, 1400 μl): 41%
- % Loss Compound 1 ([2]; Experiment 3: 1.6 × 4.8 Perox-cured silicone tubing, polysorbate 80 0 v/v %, 2 min 6 sec, 1400 μl): 45%
- % Loss Compound 1 ([2]; Experiment 4: 0.8 × 4.0 Pt-cured silicone tubing, polysorbate 80 1 v/v %, 2 min 3 sec, 350 μl): 0%
- % Loss Compound 1 ([2]; Experiment 5: 1.6 × 4.8 Pt-cured silicone tubing, polysorbate 80 1 v/v %, 2 min 10 sec, 1400 μl): 1%
- % Loss Compound 1 ([2]; Experiment 6: 1.6 × 4.8 Perox-cured silicone tubing, polysorbate 80 1 v/v %, 2 min 4 sec, 1400 μl): 0%
- % Loss Compound 1 ([2]; Experiment 7: 0.8 × 4.0 Pt-cured silicone tubing, polysorbate 80 5 v/v %, 2 min 2 sec, 350 μl): 0%
- % Loss Compound 1 ([2]; Experiment 8: 1.6 × 4.8 Pt-cured silicone tubing, polysorbate 80 5 v/v %, 2 min 4 sec, 1400 μl): 1%
- % Loss Compound 1 ([2]; Experiment 9: 1.6 × 4.8 Perox-cured silicone tubing, polysorbate 80 5 v/v %, 2 min 1 sec, 1400 μl): 1%
Compound: CNc1ccc(-c2nc3ccc(O)cc3s2)cc1[18F] [Compound 1, 2-[3-[^18F]fluoro-4-(methylamino)phenyl]-6-hydroxy-benzothiazole]

Reference: patent publication US8916131B2, “Radiopharmaceutical composition” (GE Healthcare Limited, priority 2007, dated 2014)
